Reference: US8178496B2, “Photoreactive regulator of glutamate receptor function and methods of use thereof” (The Regents of the University of California, priority 2007, dated 2012)
“Also recorded” adds a separate entry of the source.

Legend:
[1] = Photostationary state determination by NMR with in situ irradiation; format: physicochemical; conditions: D2O, mean±s.e.m., n=3
Description: Cis/trans photoisomerization of 2 was studied by ^1H NMR, with in situ irradiation of the sample using a Polychrome V system monochromator (TILL Photonics) containing a 150 W Xenon short arc lamp with an output range of 320-680 nm. The half-power bandwidth was 14 nm. A 500 μl aliquot of a 100 mM sample in D2O was prepared in a screw-capped 528-TR-7 NMR tube (Wilmad). A FT-600-UMT fiber optic cable (NA 0.39) (Thorlabs) was coupled at one end to the monochromator using a custom fitting and the other end inserted into the NMR tube a few millimeters above the solution. Each sample was irradiated at the desired wavelength for 30 minutes to reach the photostationary state and 480 scans were required to obtain reasonable signal-to-noise ratios. The output from the fiber optic cable between 340-480 nm ranged from 0.3-9.0 μW/cm^2. Data were processed by isolating aromatic cis-trans ^1H signals and summing their integrals to 1.0. All data were obtained in triplicate and averaged.

iGluR2(Q)flip-L483Y = experiment: Whole-cell voltage clamp recording in HEK293 cells expressing iGluR2; format: cell-based
Description: (§1) HEK293 cells were plated at approximately 3×10^6 cells/ml on poly-L-lysine-coated glass coverslips (Deutsche Spiegelglas, Carolina Biological) and maintained in DMEM with 5% newborn calf serum, 0.2 mg/ml streptomycin, and 200 U/ml penicillin at 37° C. Cells were transiently transfected with various plasmids using lipofectamine 2000 (Invitrogen). The amount of total transfected ionotropic glutamate receptor-2 (iGluR2), iGluR5, and iGluR6 DNA and enhanced yellow fluorescent protein (EYFP) fusion DNA per 0.5 mL well was fixed at 0.7 μg and 0.3 μg, respectively. All recordings were carried out 24 to 48 h after transfection.
Patch clamp recordings were carried out using an Axopatch 200A amplifier in the whole cell mode. HEK cells were voltage clamped at −60 mV and hippocampal neurons were current clamped at −65 mV. Pipettes had resistances 2-6 MΩ. For experiments in HEK cells, pipettes were filled with a solution containing (in mM): 145 CsCl, 5 EGTA, 0.5 CaCl2, 1.0 MgCl2 and 10 HEPES at pH7.2 (CsOH). […] Illumination was applied using a TILL Photonics Polychrome V monochromator through a 40×/0.60 W objective (power output: 4.8 mW/mm^2 at 500 nm and 1.8 mW/mm^2 at 380 nm, as measured with a Newport optical power meter). Data was recorded with pClamp software, which was also used to automatically control the monochromator by means of sequencing keys. […]

iGluR5(Q) = biological target: T1, iGluR5(Q) (Homo sapiens, UniProt P39086); experiment: Whole-cell voltage clamp dose-response in HEK293 cells expressing iGluR5(Q); format: cell-based
T1 construct: expressed in transfected cells; host or cells: HEK293
T1 sequence (P39086 31-918): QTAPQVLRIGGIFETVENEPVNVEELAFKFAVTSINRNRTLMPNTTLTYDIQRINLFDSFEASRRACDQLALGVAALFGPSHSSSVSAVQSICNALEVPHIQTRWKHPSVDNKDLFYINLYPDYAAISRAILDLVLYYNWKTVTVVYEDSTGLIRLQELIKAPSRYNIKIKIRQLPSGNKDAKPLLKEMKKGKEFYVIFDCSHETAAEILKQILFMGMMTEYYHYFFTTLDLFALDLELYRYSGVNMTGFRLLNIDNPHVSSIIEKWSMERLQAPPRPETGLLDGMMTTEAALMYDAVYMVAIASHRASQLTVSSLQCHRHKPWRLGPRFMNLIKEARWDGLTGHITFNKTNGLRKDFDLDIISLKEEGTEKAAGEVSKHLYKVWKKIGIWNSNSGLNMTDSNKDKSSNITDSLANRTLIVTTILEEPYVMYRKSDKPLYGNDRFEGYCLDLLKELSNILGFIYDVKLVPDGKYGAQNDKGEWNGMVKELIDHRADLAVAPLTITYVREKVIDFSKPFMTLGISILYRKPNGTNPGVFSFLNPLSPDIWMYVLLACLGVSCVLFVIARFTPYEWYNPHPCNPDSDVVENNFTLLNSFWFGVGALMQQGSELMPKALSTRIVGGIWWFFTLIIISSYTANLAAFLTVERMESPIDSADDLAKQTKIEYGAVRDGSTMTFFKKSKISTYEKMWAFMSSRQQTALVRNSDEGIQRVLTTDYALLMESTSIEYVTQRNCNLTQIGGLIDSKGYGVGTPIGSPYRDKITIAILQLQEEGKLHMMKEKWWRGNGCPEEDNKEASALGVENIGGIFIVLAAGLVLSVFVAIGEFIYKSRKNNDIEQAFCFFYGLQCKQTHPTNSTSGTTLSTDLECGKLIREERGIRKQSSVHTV
Description: as §1
(§2) Patch clamp recordings were carried out using an Axopatch 200A amplifier in the whole cell mode. HEK cells were voltage clamped at −60 mV and hippocampal neurons were current clamped at −65 mV. Pipettes had resistances 2-6 MΩ. For experiments in HEK cells, pipettes were filled with a solution containing (in mM): 145 CsCl, 5 EGTA, 0.5 CaCl2, 1.0 MgCl2 and 10 HEPES at pH7.2 (CsOH). The extracellular solution contained (in mM): 135 NaCl, 5.4 KCl, 0.9 MgCl2, 1.8 CaCl2, and 10 HEPES at pH 7.6 (NaOH). Cells were preincubated for 10 min in control solution containing 300 mg/l Concanavalin A type VI (Sigma) in order to block desensitization. For experiments in hippocampal neurons, pipettes were filled with a solution containing (in mM): 10 NaCl, 1 EGTA, 135 K-gluconate, 2.0 MgCl2, 10 HEPES and 2 Mg-ATP at pH7.4 (KOH). The extracellular solution contained (in mM): 138 NaCl, 1.5 KCl, 1.2 MgCl2, 2.5 CaCl2, 10 glucose and 10 HEPES at pH 7.3 (NaOH). L-Glutamate, DNQX, and compound 2 were applied as reported in text and figures with complete exchange of the bath solution occurring in less than 10 sec. Compound 2 was not pre-irradiated prior to perfusion, but the bath and coverslip were continuously under illumination as denoted in traces. Following complete exchange of the bath, perfusion of 2 was stopped prior to switching illumination wavelengths. Illumination was applied using a TILL Photonics Polychrome V monochromator through a 40×/0.60 W objective (power output: 4.8 mW/mm^2 at 500 nm and 1.8 mW/mm^2 at 380 nm, as measured with a Newport optical power meter). Data was recorded with pClamp software, which was also used to automatically control the monochromator by means of sequencing keys. The results are representative data from multiple cells in at least three independent cultures.

iGluR = experiment: Rates of light-driven channel activation and deactivation (whole-cell patch clamp); format: cell-based; conditions: mean±s.e.m., n=3
Description: as §2, with “L-Glutamate, DNQX, and compound 2 were applied as reported in text and figures with complete exchange of the bath solution occurring in less than 10 sec. Compound 2 was not pre-irradiated prior to perfusion, but the bath and coverslip were continuously under illumination as denoted in traces. Following complete exchange of the bath, perfusion of 2 was stopped prior to switching illumination wavelengths.” left out, “The results are representative data from multiple cells in at least three independent cultures.” left out

wild-type iGluR6(Q) = biological target: T2, wild-type iGluR6(Q) (Homo sapiens, UniProt Q13002); experiment: Whole-cell voltage clamp recording in HEK293 cells expressing iGluR6(Q); format: cell-based
T2 construct: expressed in transfected cells; host or cells: HEK293
T2 sequence (Q13002 32-908): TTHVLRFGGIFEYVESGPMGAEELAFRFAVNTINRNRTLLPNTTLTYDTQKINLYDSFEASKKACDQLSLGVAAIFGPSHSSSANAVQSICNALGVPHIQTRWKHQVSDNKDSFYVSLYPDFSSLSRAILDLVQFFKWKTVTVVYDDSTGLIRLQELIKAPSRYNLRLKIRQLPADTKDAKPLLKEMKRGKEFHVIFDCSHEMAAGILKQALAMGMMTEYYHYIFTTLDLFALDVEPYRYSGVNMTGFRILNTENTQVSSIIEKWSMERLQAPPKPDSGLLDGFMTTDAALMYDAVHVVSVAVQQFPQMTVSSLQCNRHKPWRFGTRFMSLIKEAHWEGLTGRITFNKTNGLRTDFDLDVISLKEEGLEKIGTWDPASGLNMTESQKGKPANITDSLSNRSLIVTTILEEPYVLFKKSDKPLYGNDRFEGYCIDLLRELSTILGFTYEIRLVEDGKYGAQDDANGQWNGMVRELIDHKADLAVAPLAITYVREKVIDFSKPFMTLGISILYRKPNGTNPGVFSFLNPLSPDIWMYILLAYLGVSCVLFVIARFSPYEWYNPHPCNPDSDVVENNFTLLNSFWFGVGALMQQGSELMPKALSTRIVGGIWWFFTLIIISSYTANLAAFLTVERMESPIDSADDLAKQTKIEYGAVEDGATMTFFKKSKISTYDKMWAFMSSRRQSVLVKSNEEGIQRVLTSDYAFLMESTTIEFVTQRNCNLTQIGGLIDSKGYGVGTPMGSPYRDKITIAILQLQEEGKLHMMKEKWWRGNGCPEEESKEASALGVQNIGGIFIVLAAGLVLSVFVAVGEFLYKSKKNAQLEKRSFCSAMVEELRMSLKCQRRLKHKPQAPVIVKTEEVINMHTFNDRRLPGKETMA
Description: as §1, §2

[2] = system: cultured rat hippocampal neurons; experiment: Whole-cell current clamp recording of cultured hippocampal neurons; format: cell-based
Description: as §2, with “L-Glutamate, DNQX, and compound 2 were applied as reported in text and figures with complete exchange of the bath solution occurring in less than 10 sec. Compound 2 was not pre-irradiated prior to perfusion, but the bath and coverslip were continuously under illumination as denoted in traces. Following complete exchange of the bath, perfusion of 2 was stopped prior to switching illumination wavelengths.” left out, “The results are representative data from multiple cells in at least three independent cultures.” left out

N[C@@H](CC(C/C=C/c1ccc(/N=N/c2ccccc2)cc1)C(=O)O)C(=O)O (stereo partly shown) [Compound 2]
photostationary state content of cis-2 ([1]; 380 nm irradiation): 76.3±0.3%
photostationary state content of trans-2 ([1]; 500 nm irradiation): 89±1%
inward currents in the presence of 250 μM 2 (iGluR2(Q)flip-L483Y; 250 μM, 380 and 500 nm illumination): failed to produce inward currents; also recorded: no effect in either the trans- (500 nm) or cis-state (380 nm)
efficacy with respect to a 300 μM glutamate evoked response (iGluR5(Q); dose-response curves under 380 and 500 nm light): approximately half-maximal efficacy
selectivity at iGluR5 over iGluR6 receptors (iGluR5(Q); dose-response curves, iGluR5(Q) versus iGluR6(Q)): high selectivity
reduction of apparent agonist affinity (EC50) relative to 500 nm (iGluR5(Q); under 380 nm light): ~10 fold
EC50 (iGluR5(Q); under 500 nm illumination, read-out: apparent agonist affinity (EC50)): 9 µM
rate of deactivation τoff-380nm (iGluR; 380 nm, 1.8 mW/mm^2): 250 ± 14 ms
rate of activation τon-500nm (iGluR; 500 nm, 4.8 mW/mm^2): 310 ± 15 ms
extent of iGluR6 channel activation (wild-type iGluR6(Q); 25 μM): only activated to a small extent
channel activation (inward currents) depending on wavelength of irradiation (wild-type iGluR6(Q); HEK293, ConA 0.3 mg/mL pretreated, trans- versus cis-state): increased inward currents in the trans-relative to the cis-state
light-controlled action potential firing ([2]; 25 μM, current clamped at −65 mV, no ConA, switching between 380 and 500 nm): sufficient to trigger, and extinguish, sustained trains of action potentials

O=C1N=c2cc([N+](=O)[O-])c([N+](=O)[O-])cc2=NC1=O [DNQX, 6,7-dinitroquinoxaline-2,3-dione, reference compound]
block of light activation with 2 (wild-type iGluR6(Q); 10 μM DNQX together with 50 μM 2, 380 and 500 nm illumination): Pharmacological block of light activation
block of the activity of 2 (wild-type iGluR6(Q); HEK293 expressing iGluR6(Q)): competitively blocked
block of light activation with 2 ([2]; 10 μM DNQX together with 25 μM 2, 380 and 500 nm illumination): Pharmacological block of light activation

N[C@@H](CCC(=O)O)C(=O)O [Glu, reference compound]
inward current evoked by 300 μM Glu (iGluR2(Q)flip-L483Y; 300 μM): evokes a large inward current
